Measured values taken from US20160045496A1, “USE OF (RS)-S-CYCLOPROPYL-S-(4--5-(TRIFLUOROMETHYL)PYRIMIDIN-2-YL]AMINO}PHENYL)SULFOXIMIDE FOR TREATMENT OF SPECIFIC TUMOURS” (BAYER PHARMA AKTIENGESELLSCHAFT, priority 2013, published 2016).

Tests used:
Type in all cases: cell-based
Rh30 cells = test: Proliferation assay, adherent cells, crystal violet; conditions: Homo sapiens, 96 h, Rh30 (DSMZ ACC-489), rhabdomyosarcoma, 4 days incubation
Procedure: (§1) Human tumour cells were originally obtained from the American Type Culture Collection (ATCC), the Deutsche Sammlung von Mikroorganismen and Zellkulturen (DSMZ) (German Collection of Microorganisms and Cell Cultures) in Braunschweig, CLS Cell Lines Service GmbH in Eppelheim, the Institut Gustave Roussy (Villejuif, France), or the Charité in Berlin (table 1). Adherently growing cells (A-673, RD, Rh30, Rh41, SK-N-AS, NCI-H2286, HCC-366, FaDu, CAL-33, RPMI-2650, SiHa) were plated out in a density of 3000-4000 cells/measurement point, depending on the rate of growth of the cell line, in a 96-well multititre plate in 200 μl of growth medium (DMEM/HAMS F12, 2 mM L-glutamine, 10% foetal calf serum). After 24 hours, the cells of one plate (zero plate) were dyed with crystal violet (see below), whereas the medium of the other plates was replaced with fresh culture medium (200 μl) to which the test substances were added in various concentrations (0 μM, and also in the range of 0.001-3 μM; the final concentration of the solvent dimethyl sulphoxide was 0.5%). The cells were incubated for 4 days in the presence of the test substances. Cell proliferation was determined by dyeing the cells with crystal violet: the cells were fixed at room temperature for 15 min by adding 20 μl/measurement point of an 11% strength glutaraldehyde solution. After washing the fixed cells three times with water, the plates were dried at room temperature. The cells were dyed by adding 100 μl/measurement point of a 0.1% strength crystal violet solution (pH adjusted to pH 3 by adding acetic acid). After washing the dyed cells three times with water, the plates were dried at room temperature. The dye was dissolved by adding 100 μl/measurement point of a 10% strength acetic acid solution. Absorbance was determined photometrically at a wavelength of 595 nm. The percentage change in cell growth was calculated by normalizing the measured values to the absorbance values of the zero plate (=0%) and the absorbance of the untreated (0 μM) cells (=100%). The measured data were normalized to 0% inhibition (cell proliferation without inhibitor) and 100% inhibition (zero plate). The IC50 values were determined by means of a four parameter fit.
(§2) The substances were investigated in the following cell lines, which, by way of example, represent the specified indications (table 1).

HCC-366 cells = test: as above; conditions: Homo sapiens, HCC366, 96 h, HCC-366 (DSMZ ACC-492), squamous-cell carcinoma, lung, 4 days incubation
Procedure: as §1, §2

SK-N-AS cells = test: as above; conditions: Homo sapiens, 96 h, SK-N-AS (ATCC CRL-2137), neuroblastoma, 4 days incubation
Procedure: as §1, §2

NCI-H2286 cells = test: as above; conditions: Homo sapiens, 96 h, NCI-H2286 (ATCC CRL-5938), squamous-cell carcinoma, lung, 4 days incubation
Procedure: as §1, §2

SiHa cells = test: as above; conditions: Homo sapiens, 96 h, SiHa (ATCC HTB-35), squamous-cell carcinoma, cervix, 4 days incubation
Procedure: as §1, §2

RPMI-2650 cells = test: as above; conditions: Homo sapiens, 96 h, RPMI-2650 (DSMZ ACC-287), squamous-cell carcinoma, head and nape, 4 days incubation
Procedure: as §1, §2

RD cells = test: as above; conditions: Homo sapiens, 96 h, RD (CLS-300401), rhabdomyosarcoma, 4 days incubation
Procedure: as §1, §2

FaDu cells = test: as above; conditions: Homo sapiens, 96 h, FaDu (ATCC HTB-43), squamous-cell carcinoma, head and nape, 4 days incubation
Procedure: as §1, §2

A-673 cells = test: as above; conditions: Homo sapiens, A673, 96 h, A-673 (ATCC CRL-1598), rhabdomyosarcoma, 4 days incubation
Procedure: as §1, §2

Rh41 cells = test: as above; conditions: Homo sapiens, 96 h, Rh41 (DSMZ ACC-592), rhabdomyosarcoma, 4 days incubation
Procedure: as §1, §2

CAL-33 cells = test: as above; conditions: Homo sapiens, 96 h, CAL-33 (DSMZ ACC-447), squamous-cell carcinoma, head and nape, 4 days incubation
Procedure: as §1, §2

HBL-1 cells = test: Proliferation assay, suspension cells, Cell Titer-Glo; conditions: Homo sapiens, HBL1, 96 h; HBL-1 (Charité, Berlin), diffuse large B-cell lymphoma; 4 days incubation; CTG
Procedure: (§3) Cells growing in suspension (HBL-1, TMD-8, GRANTA-519, Jeko-1) were plated out in a cell density of 2000-4000 cells/measurement point, depending on the rate of growth of the cell line, in a black-walled, clear-bottom 96-well multititre plate in 100 μl of growth medium (DMEM/HAMS F12, 2 mM L-glutamine, 10% foetal calf serum). After 24 hours, cell density was determined in one plate (zero plate) by adding 60 μl/measurement point of CTG solution (Promega Cell Titer-Glo solution (catalogue numbers G755B and G756B)), subsequent incubation for 2 min followed by 10 min shaking (in the dark) and measurement of luminescence (VICTOR V, Perkin Elmer). For the test plates, the test substances were prepared in various concentrations (0 μM, and also in the range of 0.001-3 μM; the final concentration of the solvent dimethyl sulphoxide was 0.5%) as 3× concentrated solutions in fresh growth medium. Aliquots of 50 μl each were added to the cell suspensions and the cells were incubated for 4 days in the presence of the test substances. Subsequently, cell density was determined using CTG solution as described above and IC50 values were calculated by means of a four parameter fit.
as §2

GRANTA-519 cells = test: as above; conditions: Homo sapiens, 96 h; GRANTA-519 (DSMZ ACC-342), mantle cell lymphoma; 4 days incubation; CTG
Procedure: as §3, §2

Jeko-1 cells [1] = test: as above; conditions: Homo sapiens, 96 h; Jeko-1 (DSMZ ACC-553), mantle cell lymphoma; 4 days incubation; CTG
Procedure: as §3, §2

TMD-8 cells = test: as above; conditions: Homo sapiens, TMD8, 96 h; TMD-8 (Charité, Berlin), diffuse large B-cell lymphoma; 4 days incubation; CTG
Procedure: as §3, §2

UPN-1 cells = test: Cytotoxic action after 24 hours, WST-1 viability; conditions: Homo sapiens, UPN1, UPN-1 (Institut Gustave Roussy), mantle cell lymphoma, after 24 hours of incubation
Procedure: (§4) The cytotoxic action of BAY 1000394 on Jeko-1 and UPN-1 cells was also determined after 24 hours of incubation with the substance. To this end, 50 000 cells per measurement point were plated out in 96-well plates and incubated with BAY 1000394 in various concentrations in the range of 0.001 to 1.0 μM. After 24 hours, the viability of the cells was determined in accordance with the WST-1 method (Roche Diagnostics, catalogue number 11644807001).
as §2

Jeko-1 cells [2] = test: Cytotoxic action after 24 hours, WST-1 viability; conditions: Homo sapiens, Jeko-1 (Institut Gustave Roussy), mantle cell lymphoma, after 24 hours of incubation
Procedure: as §4, §2

**Q.** What does the source list for `C[C@@H](O)[C@@H](C)Oc1nc(Nc2ccc([S@](=N)(=O)C3CC3)cc2)ncc1C(F)(F)F` [BAY 1000394, (R)-S-cyclopropyl-S-(4-{[4-{[(1R, 2R)-2-hydroxy-1-methylpropyl]oxy}-5-(trifluoromethyl)pyrimidin-2-yl]amino}phenyl)sulphoximide]?
**A.** IC50 (Rh30 cells): 0.023 µM; IC50 (HCC-366 cells): 0.02 µM; IC50 (SK-N-AS cells): 0.022 µM; IC50 (NCI-H2286 cells): 0.007 µM; IC50 (SiHa cells): 0.01 µM; IC50 (RPMI-2650 cells): 0.013 µM; IC50 (RD cells): 0.026 µM; IC50 (FaDu cells): 0.046 µM; IC50 (A-673 cells): 0.0098 µM; IC50 (Rh41 cells): 0.017 µM; IC50 (CAL-33 cells): 0.019 µM; IC50 (HBL-1 cells): 0.024 µM; IC50 (GRANTA-519 cells): 0.044 µM; IC50 (Jeko-1 cells [1]): 0.02 µM; IC50 (TMD-8 cells): 0.035 µM; IC50 (UPN-1 cells): 0.0047 µM; IC50 (Jeko-1 cells [2]): 0.031 µM
